Assay results published in ChEMBL document CHEMBL3885881, “DrugMatrix”.

Species on record: Rattus norvegicus
Experiment: DrugMatrix - Regimen: Daily Repeat
Format: toxicity, organism-based, Sprague-Dawley
Set-up: regimen Daily Repeat, gender Male, age 6-8 weeks
Conditions: in vivo, po, route oral GAVAGE, vehicle .5 % CMC; for ABSOLUTE BASOPHIL / ABSOLUTE EOSINOPHIL / ABSOLUTE LYMPHOCYTE / ABSOLUTE MONOCYTE / ABSOLUTE SEGMENTED NEUTROPHIL / BASOPHIL / EOSINOPHIL / ERYTHROCYTE COUNT / HEMATOCRIT / HEMOGLOBIN / LEUKOCYTE COUNT / LYMPHOCYTE / MEAN CORPUSCULAR HEMOGLOBIN / MEAN CORPUSCULAR HEMOGLOBIN CONCENTRATION / MEAN CORPUSCULAR VOLUME / MONOCYTE / NEUTROPHIL / NUCLEATED RED BLOOD CELLS / PLATELET COUNT: tissue Blood; for ALANINE AMINOTRANSFERASE / ALBUMIN / ALKALINE PHOSPHATASE / ASPARTATE AMINOTRANSFERASE / BLOOD UREA NITROGEN / CARBON DIOXIDE / CHLORIDE / CHOLESTEROL / CREATINE PHOSPHOKINASE / CREATININE / GLUCOSE / LACTATE DEHYDROGENASE / LIPASE / PHOSPHORUS / POTASSIUM / SODIUM / TOTAL BILIRUBIN / TOTAL PROTEIN / URIC ACID: tissue Plasma
[1] = 3 mg/kg, 120 h, dose level Low, time 5 day
[2] = 30 mg/kg, 72 h, dose level High, time 3 day
[3] = 30 mg/kg, 120 h, dose level High, time 5 day

## CC(=O)Nc1ccc2c(c1)Cc1ccccc1-2 [2-ACETYLAMINOFLUORENE]
[1]
  ABSOLUTE BASOPHIL: 0 CELLS/uL
  ABSOLUTE EOSINOPHIL: 0 CELLS/uL
  ABSOLUTE LYMPHOCYTE: 14012 CELLS/uL
  ABSOLUTE MONOCYTE: 174.33 CELLS/uL
  ABSOLUTE SEGMENTED NEUTROPHIL: 1113.67 CELLS/uL
  BASOPHIL: 0%
  EOSINOPHIL: 0%
  ERYTHROCYTE COUNT: 5.69 x10E6/uL
  HEMATOCRIT: 34.77%
  HEMOGLOBIN: 13.53 G/DL
  LEUKOCYTE COUNT: 15.3 x10E3/uL
  LYMPHOCYTE: 92%
  MEAN CORPUSCULAR HEMOGLOBIN: 23.73 pg
  MEAN CORPUSCULAR HEMOGLOBIN CONCENTRATION: 39 G/DL
  MEAN CORPUSCULAR VOLUME: 61 fL
  MONOCYTE: 1%
  NEUTROPHIL: 7%
  NUCLEATED RED BLOOD CELLS: 0 /100WBC
  PLATELET COUNT: 1174.67 x10E3/uL
  ALANINE AMINOTRANSFERASE: 51 u/L
  ALBUMIN: 4.03 G/DL
  ALKALINE PHOSPHATASE: 355 u/L
  ASPARTATE AMINOTRANSFERASE: 106.67 u/L
  BLOOD UREA NITROGEN: 16.67 mg/dL
  CARBON DIOXIDE: 29.67 mmol/L
  CHLORIDE: 98 MEQ/L
  CHOLESTEROL: 70.67 mg/dL
  CREATINE PHOSPHOKINASE: 459.33 u/L
  CREATININE: 0.16 mg/dL
  GLUCOSE: 147 mg/dL
  LACTATE DEHYDROGENASE: 770.33 u/L
  LIPASE: 9.67 u/L
  PHOSPHORUS: 11.37 mg/dL
  POTASSIUM: 6.6 MEQ/L
  SODIUM: 139.93 MEQ/L
  TOTAL BILIRUBIN: 0.23 mg/dL
  TOTAL PROTEIN: 5.9 G/DL
  URIC ACID: 1.5 mg/dL
[2]
  ABSOLUTE BASOPHIL: 0 CELLS/uL
  ABSOLUTE EOSINOPHIL: 86 CELLS/uL
  ABSOLUTE LYMPHOCYTE: 12836 CELLS/uL
  ABSOLUTE MONOCYTE: 177.33 CELLS/uL
  ABSOLUTE SEGMENTED NEUTROPHIL: 1034 CELLS/uL
  BASOPHIL: 0%
  EOSINOPHIL: 0.67%
  ERYTHROCYTE COUNT: 5.86 x10E6/uL
  HEMATOCRIT: 36.83%
  HEMOGLOBIN: 14.6 G/DL
  LEUKOCYTE COUNT: 14.13 x10E3/uL
  LYMPHOCYTE: 90.67%
  MEAN CORPUSCULAR HEMOGLOBIN: 24.9 pg
  MEAN CORPUSCULAR HEMOGLOBIN CONCENTRATION: 39.6 G/DL
  MEAN CORPUSCULAR VOLUME: 62.87 fL
  MONOCYTE: 1.33%
  NEUTROPHIL: 7.33%
  NUCLEATED RED BLOOD CELLS: 0 /100WBC
  PLATELET COUNT: 1279.33 x10E3/uL
  ALANINE AMINOTRANSFERASE: 53.67 u/L
  ALBUMIN: 3.73 G/DL
  ALKALINE PHOSPHATASE: 368.67 u/L
  ASPARTATE AMINOTRANSFERASE: 126.33 u/L
  BLOOD UREA NITROGEN: 15 mg/dL
  CARBON DIOXIDE: 22.67 mmol/L
  CHLORIDE: 102 MEQ/L
  CHOLESTEROL: 53 mg/dL
  CREATINE PHOSPHOKINASE: 1143.67 u/L
  CREATININE: 0.21 mg/dL
  GLUCOSE: 158.67 mg/dL
  LACTATE DEHYDROGENASE: 858.33 u/L
  LIPASE: 10.33 u/L
  PHOSPHORUS: 10.73 mg/dL
  POTASSIUM: 6.07 MEQ/L
  SODIUM: 142.33 MEQ/L
  TOTAL BILIRUBIN: 0.2 mg/dL
  TOTAL PROTEIN: 5.3 G/DL
  URIC ACID: 1.47 mg/dL
[3]
  ABSOLUTE BASOPHIL: 0 CELLS/uL
  ABSOLUTE EOSINOPHIL: 0 CELLS/uL
  ABSOLUTE LYMPHOCYTE: 17906.67 CELLS/uL
  ABSOLUTE MONOCYTE: 125.33 CELLS/uL
  ABSOLUTE SEGMENTED NEUTROPHIL: 368 CELLS/uL
  BASOPHIL: 0%
  EOSINOPHIL: 0%
  ERYTHROCYTE COUNT: 6.43 x10E6/uL
  HEMATOCRIT: 39.07%
  HEMOGLOBIN: 15.4 G/DL
  LEUKOCYTE COUNT: 18.4 x10E3/uL
  LYMPHOCYTE: 97.33%
  MEAN CORPUSCULAR HEMOGLOBIN: 24 pg
  MEAN CORPUSCULAR HEMOGLOBIN CONCENTRATION: 39.43 G/DL
  MEAN CORPUSCULAR VOLUME: 60.83 fL
  MONOCYTE: 0.67%
  NEUTROPHIL: 2%
  NUCLEATED RED BLOOD CELLS: 0 /100WBC
  PLATELET COUNT: 1336 x10E3/uL
  ALANINE AMINOTRANSFERASE: 44 u/L
  ALBUMIN: 3.8 G/DL
  ALKALINE PHOSPHATASE: 317.33 u/L
  ASPARTATE AMINOTRANSFERASE: 100.33 u/L
  BLOOD UREA NITROGEN: 20.33 mg/dL
  CARBON DIOXIDE: 27.33 mmol/L
  CHLORIDE: 104.33 MEQ/L
  CHOLESTEROL: 46.67 mg/dL
  CREATINE PHOSPHOKINASE: 551.33 u/L
  CREATININE: 0.22 mg/dL
  GLUCOSE: 146.33 mg/dL
  LACTATE DEHYDROGENASE: 501 u/L
  LIPASE: 9.33 u/L
  PHOSPHORUS: 11.33 mg/dL
  POTASSIUM: 6.51 MEQ/L
  SODIUM: 146.97 MEQ/L
  TOTAL BILIRUBIN: 0.17 mg/dL
  TOTAL PROTEIN: 5.4 G/DL
  URIC ACID: 1.93 mg/dL
